# Results taken from the supplement of paper PMC10307832.
# Key:
# Test in all cases: relative viability (nuclei count vs DMSO), 5 days (fraction); higher = more cells survive
# NCI-H2085 = test system: NCI-H2085
# Method in brief: (§1)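 Dosing by pin tool came one day after lung cancer cell lines were seeded in 1536-well plates, using either one drug or a fixed anchor-drug dose plus five library-drug doses (not always all listed) in √10 steps. After 5 days, nuclei were counted on 4× images. Relative viability is treated-well nuclei count divided by vehicle-well nuclei count, and values are medians of duplicate plates.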
# NCI-H2023 = test system: NCI-H2023
# Method in brief: as §1
# COR-L23 = test system: COR-L23
# Method in brief: as §1
# NCI-H1651 = test system: NCI-H1651
# Method in brief: as §1
# NCI-H520 = test system: NCI-H520
# Method in brief: as §1
# HCC-827 = test system: HCC-827
# Method in brief: as §1
# EPLC-272H = test system: EPLC-272H
# Method in brief: as §1
# NCI-H1563 = test system: NCI-H1563
# Method in brief: as §1
# LU99A = test system: LU99A
# Method in brief: as §1
# NCI-H2087 = test system: NCI-H2087
# Method in brief: as §1
# H3255 = test system: H3255
# Method in brief: as §1
# NCI-H2405 = test system: NCI-H2405
# Method in brief: as §1
# NCI-H838 = test system: NCI-H838
# Method in brief: as §1
# NCI-H1395 = test system: NCI-H1395
# Method in brief: as §1
# SK-MES-1 = test system: SK-MES-1
# Method in brief: as §1
# HCC-44 = test system: HCC-44
# Method in brief: as §1
# NCI-H1944 = test system: NCI-H1944
# Method in brief: as §1
# NCI-H650 = test system: NCI-H650
# Method in brief: as §1
# EMC-BAC-2 = test system: EMC-BAC-2
# Method in brief: as §1
# NCI-H1793 = test system: NCI-H1793
# Method in brief: as §1
compound,measurement,setting,value
O=c1cc(-c2cccc3c2Sc2ccccc2S3)oc(N2CCOCC2)c1 + CS(=O)(=O)CCNCc1ccc(-c2ccc3ncnc(Nc4ccc(OCc5cccc(F)c5)c(Cl)c4)c3c2)o1 [Lapatinib] (partner 2 µM),relative viability,NCI-H2085; first compound 0.08 µM,0.636
same,relative viability,NCI-H2085; first compound 0.253 µM,0.86
same,relative viability,NCI-H2085; first compound 0.8 µM,0.767
same,relative viability,NCI-H2085; first compound 2.53 µM,0.703
same,relative viability,NCI-H2085; first compound 8 µM,0.644
same,relative viability,NCI-H2023; first compound 0.08 µM,0.767
same,relative viability,NCI-H2023; first compound 0.253 µM,1.03
same,relative viability,NCI-H2023; first compound 0.8 µM,0.748
same,relative viability,NCI-H2023; first compound 2.53 µM,0.571
same,relative viability,NCI-H2023; first compound 8 µM,0.94
same,relative viability,COR-L23; first compound 0.08 µM,1.1
same,relative viability,COR-L23; first compound 0.253 µM,1.67
same,relative viability,COR-L23; first compound 0.8 µM,0.962
same,relative viability,COR-L23; first compound 2.53 µM,0.836
same,relative viability,COR-L23; first compound 8 µM,1.09
same,relative viability,NCI-H1651; first compound 0.08 µM,0.866
same,relative viability,NCI-H1651; first compound 0.253 µM,1.06
same,relative viability,NCI-H1651; first compound 0.8 µM,0.711
same,relative viability,NCI-H1651; first compound 2.53 µM,0.703
same,relative viability,NCI-H1651; first compound 8 µM,0.953
same,relative viability,NCI-H520; first compound 0.08 µM,0.767
same,relative viability,NCI-H520; first compound 0.253 µM,1.13
same,relative viability,NCI-H520; first compound 0.8 µM,0.973
same,relative viability,NCI-H520; first compound 2.53 µM,0.787
same,relative viability,NCI-H520; first compound 8 µM,0.961
same,relative viability,HCC-827; first compound 0.08 µM,0.189
same,relative viability,HCC-827; first compound 0.253 µM,0.196
same,relative viability,HCC-827; first compound 0.8 µM,0.168
same,relative viability,HCC-827; first compound 2.53 µM,0.189
same,relative viability,HCC-827; first compound 8 µM,0.178
same,relative viability,EPLC-272H; first compound 0.08 µM,0.935
same,relative viability,EPLC-272H; first compound 0.253 µM,0.841
same,relative viability,EPLC-272H; first compound 0.8 µM,0.867
same,relative viability,EPLC-272H; first compound 2.53 µM,0.779
same,relative viability,EPLC-272H; first compound 8 µM,1.2
same,relative viability,NCI-H1563; first compound 0.08 µM,0.872
same,relative viability,NCI-H1563; first compound 0.253 µM,0.978
same,relative viability,NCI-H1563; first compound 0.8 µM,0.9
same,relative viability,NCI-H1563; first compound 2.53 µM,0.934
same,relative viability,NCI-H1563; first compound 8 µM,0.891
same,relative viability,LU99A; first compound 0.08 µM,1.07
same,relative viability,LU99A; first compound 0.253 µM,0.954
same,relative viability,LU99A; first compound 0.8 µM,1.49
same,relative viability,LU99A; first compound 2.53 µM,1.03
same,relative viability,LU99A; first compound 8 µM,1.11
same,relative viability,NCI-H2087; first compound 0.08 µM,0.981
same,relative viability,NCI-H2087; first compound 0.253 µM,0.98
same,relative viability,NCI-H2087; first compound 0.8 µM,1.13
same,relative viability,NCI-H2087; first compound 2.53 µM,0.959
same,relative viability,NCI-H2087; first compound 8 µM,1.4
same,relative viability,H3255; first compound 0.08 µM,0.239
same,relative viability,H3255; first compound 0.253 µM,0.226
same,relative viability,H3255; first compound 0.8 µM,0.224
same,relative viability,H3255; first compound 2.53 µM,0.231
same,relative viability,H3255; first compound 8 µM,0.225
same,relative viability,NCI-H2405; first compound 0.08 µM,0.928
same,relative viability,NCI-H2405; first compound 0.253 µM,1.1
same,relative viability,NCI-H2405; first compound 0.8 µM,1.02
same,relative viability,NCI-H2405; first compound 2.53 µM,0.937
same,relative viability,NCI-H2405; first compound 8 µM,1.02
same,relative viability,NCI-H838; first compound 0.08 µM,0.973
same,relative viability,NCI-H838; first compound 0.253 µM,1.36
same,relative viability,NCI-H838; first compound 0.8 µM,0.844
same,relative viability,NCI-H838; first compound 2.53 µM,0.969
same,relative viability,NCI-H838; first compound 8 µM,0.953
same,relative viability,NCI-H1395; first compound 0.08 µM,0.971
same,relative viability,NCI-H1395; first compound 0.253 µM,1.04
same,relative viability,NCI-H1395; first compound 0.8 µM,1.02
same,relative viability,NCI-H1395; first compound 2.53 µM,1.16
same,relative viability,NCI-H1395; first compound 8 µM,0.949
same,relative viability,SK-MES-1; first compound 0.08 µM,0.487
same,relative viability,SK-MES-1; first compound 0.253 µM,0.562
same,relative viability,SK-MES-1; first compound 0.8 µM,0.445
same,relative viability,SK-MES-1; first compound 2.53 µM,0.483
same,relative viability,SK-MES-1; first compound 8 µM,0.439
same,relative viability,HCC-44; first compound 0.08 µM,1.05
same,relative viability,HCC-44; first compound 0.253 µM,1.21
same,relative viability,HCC-44; first compound 0.8 µM,0.977
same,relative viability,HCC-44; first compound 2.53 µM,0.928
same,relative viability,HCC-44; first compound 8 µM,1.14
same,relative viability,NCI-H1944; first compound 0.08 µM,0.846
same,relative viability,NCI-H1944; first compound 0.253 µM,1.07
same,relative viability,NCI-H1944; first compound 0.8 µM,0.733
same,relative viability,NCI-H1944; first compound 8 µM,0.998
same,relative viability,NCI-H650; first compound 0.08 µM,0.819
same,relative viability,NCI-H650; first compound 0.253 µM,0.84
same,relative viability,NCI-H650; first compound 0.8 µM,1.16
same,relative viability,NCI-H650; first compound 2.53 µM,0.706
same,relative viability,NCI-H650; first compound 8 µM,0.842
same,relative viability,EMC-BAC-2; first compound 0.08 µM,0.873
same,relative viability,EMC-BAC-2; first compound 0.253 µM,0.987
same,relative viability,EMC-BAC-2; first compound 0.8 µM,0.887
same,relative viability,EMC-BAC-2; first compound 2.53 µM,0.865
same,relative viability,EMC-BAC-2; first compound 8 µM,0.929
same,relative viability,NCI-H1793; first compound 0.08 µM,0.641
same,relative viability,NCI-H1793; first compound 0.253 µM,1.16
same,relative viability,NCI-H1793; first compound 0.8 µM,0.643
same,relative viability,NCI-H1793; first compound 2.53 µM,0.837
same,relative viability,NCI-H1793; first compound 8 µM,0.752
